Assay results published in ChEMBL document CHEMBL1129630, “Synthesis and structure-activity relationships of retinoid X receptor selective diaryl sulfide analogs of retinoic acid” (J Med Chem, 1996).

Tested on: HL-60
Assay: Induction of transglutaminase (TGase) activity in HL-60 cells
Conditions: Homo sapiens

C/C(=C\c1ccc(C(=O)O)cc1)c1ccc2c(c1)C(C)(C)CCC2(C)C
EC50: > 1000 nM
